Measured values published in the supplement of paper PMC11451515.

Legend:
Conditions in all cases: 48 h
[1] = tested on: NOMO1; assay: AUC of viability dose-response curve (% viability x log10 dose units); higher = less sensitive
Method in brief: (§1)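 Leukemia cells adapted to each medium were seeded in 1536-well plates (500 or 1000 cells/well) and given library compounds in DMSO for 48 h at 37°C. The 11 threefold doses spanned 47 μM to 0.79 nM, and CellTiter-Glo One luminescence was normalised per plate to DMSO and cell-free wells before four-parameter log-logistic fitting on log10 dose. Area under the curve was integrated with the trapezoidal rule, scaling curves above full viability and removing curves that failed quality control.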

[2] = tested on: P12-Ichikawa; assay: as above
Method in brief: as §1

[3] = tested on: SEM cells; assay: as above
Method in brief: as §1

[4] = tested on: NOMO1; assay: cell viability relative to DMSO control; higher = less cytotoxic
Method in brief: (§2)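 Viability was expressed as a per-plate percentage of DMSO wells, with cell-free wells as background. Leukemia cells (NOMO1 or SEM at 500 cells/well, P12-Ichikawa at 1000 cells/well) were adapted for at least four passages in each medium and seeded in 1536-well plates (5 μl). Library compounds in DMSO were pin-dosed over an 11-point threefold series from 47 μM to 0.79 nM, and CellTiter-Glo One luminescence was read after 48 h at 37°C.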

[5] = tested on: P12-Ichikawa; assay: as above
Method in brief: as §2

[6] = tested on: SEM cells; assay: as above
Method in brief: as §2

C[C@H](NCc1ccc2c(c1)nc(NC(=O)c1ccc(-c3cn[nH]c3)s1)n2CCc1ccccc1)C(C)(C)C
AUC of viability dose-response curve
Conditions | [1] | [2] | [3]
HPLM + 10% dialyzed FBS | 373 | 410 | 248
RPMI 5 mM glucose + 10% FBS | 404 | 403 | 242
RPMI 5 mM glucose + 10% dialyzed FBS | 396 | 412 | 224

OC1=CC2=C(C=C1)C(=O)\C(=C(O2)\C3=CC(=C(O)C=C3)O)O
cell viability [%]
Conditions | [4] | [5] | [6]
HPLM + 10% dialyzed FBS, 0.000781 µM | 105 | 102 | 103
HPLM + 10% dialyzed FBS, 0.00234 µM | 98 | 105 | 116
HPLM + 10% dialyzed FBS, 0.00702 µM | 108 | 98.2 | 104
HPLM + 10% dialyzed FBS, 0.0211 µM | 93 | 91.1 | 93.6
HPLM + 10% dialyzed FBS, 0.0632 µM | 102 | 94 | 102
HPLM + 10% dialyzed FBS, 0.19 µM | 97.1 | 87.7 | 99.5
HPLM + 10% dialyzed FBS, 0.569 µM | 91.2 | 89.5 | 102
HPLM + 10% dialyzed FBS, 1.71 µM | 105 | 92.4 | 104
HPLM + 10% dialyzed FBS, 5.12 µM | 84 | 86 | 104
HPLM + 10% dialyzed FBS, 15.4 µM | 93.9 | 82.4 | 93.2
HPLM + 10% dialyzed FBS, 46.1 µM | 65.6 | 44 | 32.9
RPMI 5 mM glucose + 10% FBS, 0.000781 µM | 85.9 | 94.1 | 111
RPMI 5 mM glucose + 10% FBS, 0.00234 µM | 91.3 | 94.7 | 113
RPMI 5 mM glucose + 10% FBS, 0.00702 µM | 96.2 | 97.5 | 102
RPMI 5 mM glucose + 10% FBS, 0.0211 µM | 6.71 | 87 | 111
RPMI 5 mM glucose + 10% FBS, 0.0632 µM | 96.6 | 91.2 | 117
RPMI 5 mM glucose + 10% FBS, 0.19 µM | 85 | 96.5 | 102
RPMI 5 mM glucose + 10% FBS, 0.569 µM | 99.7 | 88.8 | 102
RPMI 5 mM glucose + 10% FBS, 1.71 µM | 88.9 | 85.5 | 97
RPMI 5 mM glucose + 10% FBS, 5.12 µM | 74.5 | 86 | 98.2
RPMI 5 mM glucose + 10% FBS, 15.4 µM | 74.8 | 88.1 | 100
RPMI 5 mM glucose + 10% FBS, 46.1 µM | 67.5 | 32.2 | 22.8
RPMI 5 mM glucose + 10% dialyzed FBS, 0.000781 µM | 96.5 | 86.5 | 84.9
RPMI 5 mM glucose + 10% dialyzed FBS, 0.00234 µM | 103 | 91.1 | 98.1
RPMI 5 mM glucose + 10% dialyzed FBS, 0.00702 µM | 101 | 88 | 89.9
RPMI 5 mM glucose + 10% dialyzed FBS, 0.0211 µM | 96.3 | 87.2 | 91.6
RPMI 5 mM glucose + 10% dialyzed FBS, 0.0632 µM | 100 | 97.6 | 99.2
RPMI 5 mM glucose + 10% dialyzed FBS, 0.19 µM | 92 | 88.1 | 96.5
RPMI 5 mM glucose + 10% dialyzed FBS, 0.569 µM | 93.3 | 85 | 103
RPMI 5 mM glucose + 10% dialyzed FBS, 1.71 µM | 89.5 | 84.8 | 88.5
RPMI 5 mM glucose + 10% dialyzed FBS, 5.12 µM | 81.3 | 90.4 | 85.9
RPMI 5 mM glucose + 10% dialyzed FBS, 15.4 µM | 81.3 | 79.7 | 75.1
RPMI 5 mM glucose + 10% dialyzed FBS, 46.1 µM | 60.1 | 32.5 | 20.1

AUC of viability dose-response curve
Conditions | HPLM + 10% dialyzed FBS | RPMI 5 mM glucose + 10% FBS | RPMI 5 mM glucose + 10% dialyzed FBS
[2] | 430 | 420 | 406
[3] | 456 | 456 | 418

O=C1\C=C/C=C2/[C@H]3CNC[C@H](C3)CN12
cell viability [%]
Conditions | [4] | [5] | [6]
HPLM + 10% dialyzed FBS, 0.000781 µM | 112 | 108 | 97.4
HPLM + 10% dialyzed FBS, 0.00234 µM | 125 | 109 | 95.2
HPLM + 10% dialyzed FBS, 0.00702 µM | 120 | 115 | 103
HPLM + 10% dialyzed FBS, 0.0211 µM | 111 | 109 | 108
HPLM + 10% dialyzed FBS, 0.0632 µM | 133 | 122 | 101
HPLM + 10% dialyzed FBS, 0.19 µM | 126 | 122 | 106
HPLM + 10% dialyzed FBS, 0.569 µM | 130 | 125 | 114
HPLM + 10% dialyzed FBS, 1.71 µM | 129 | 123 | 104
HPLM + 10% dialyzed FBS, 5.12 µM | 116 | 116 | 102
HPLM + 10% dialyzed FBS, 15.4 µM | 97.9 | 97.5 | 112
HPLM + 10% dialyzed FBS, 46.1 µM | 27.7 | 58.3 | 103
RPMI 5 mM glucose + 10% FBS, 0.000781 µM | 105 | 116 | 101
RPMI 5 mM glucose + 10% FBS, 0.00234 µM | 107 | 111 | 104
RPMI 5 mM glucose + 10% FBS, 0.00702 µM | 124 | 120 | 102
RPMI 5 mM glucose + 10% FBS, 0.0211 µM | 107 | 129 | 113
RPMI 5 mM glucose + 10% FBS, 0.0632 µM | 110 | 122 | 123
RPMI 5 mM glucose + 10% FBS, 0.19 µM | 120 | 125 | 114
RPMI 5 mM glucose + 10% FBS, 0.569 µM | 112 | 124 | 103
RPMI 5 mM glucose + 10% FBS, 1.71 µM | 123 | 132 | 127
RPMI 5 mM glucose + 10% FBS, 5.12 µM | 111 | 113 | 113
RPMI 5 mM glucose + 10% FBS, 15.4 µM | 100 | 112 | 112
RPMI 5 mM glucose + 10% FBS, 46.1 µM | 46.9 | 54.8 | 61.2
RPMI 5 mM glucose + 10% dialyzed FBS, 0.000781 µM | 96.7 | 111 | 108
RPMI 5 mM glucose + 10% dialyzed FBS, 0.00234 µM | 98.4 | 109 | 76.6
RPMI 5 mM glucose + 10% dialyzed FBS, 0.00702 µM | 107 | 110 | 101
RPMI 5 mM glucose + 10% dialyzed FBS, 0.0211 µM | 109 | 108 | 118
RPMI 5 mM glucose + 10% dialyzed FBS, 0.0632 µM | 119 | 121 | 112
RPMI 5 mM glucose + 10% dialyzed FBS, 0.19 µM | 118 | 120 | 123
RPMI 5 mM glucose + 10% dialyzed FBS, 0.569 µM | 122 | 132 | 120
RPMI 5 mM glucose + 10% dialyzed FBS, 1.71 µM | 112 | 126 | 119
RPMI 5 mM glucose + 10% dialyzed FBS, 5.12 µM | 102 | 118 | 126
RPMI 5 mM glucose + 10% dialyzed FBS, 15.4 µM | 104 | 99.9 | 103
RPMI 5 mM glucose + 10% dialyzed FBS, 46.1 µM | 64.2 | 67.7 | 113

AUC of viability dose-response curve
Conditions | [1] | [2] | [3]
HPLM + 10% dialyzed FBS | 447 | 457 | 462
RPMI 5 mM glucose + 10% FBS | 458 | 459 | 466
RPMI 5 mM glucose + 10% dialyzed FBS | 464 | 459 | 456
